From ChEMBL document CHEMBL1144315, “Three-dimensional quantitative structure (3-D QSAR) activity relationship studies on imidazolyl and N-pyrrolyl heptenoates as 3-hydroxy-3-methylglutaryl-CoA reductase (HMGR) inhibitors by comparative molecular similarity indices analysis (CoMSIA)” (Bioorg Med Chem Lett, 2005) come the findings set out here.

This assay has as its target T1, 3-hydroxy-3-methylglutaryl-coenzyme A reductase (Homo sapiens, UniProt P04035).
T1 sequence (P04035 whole entry): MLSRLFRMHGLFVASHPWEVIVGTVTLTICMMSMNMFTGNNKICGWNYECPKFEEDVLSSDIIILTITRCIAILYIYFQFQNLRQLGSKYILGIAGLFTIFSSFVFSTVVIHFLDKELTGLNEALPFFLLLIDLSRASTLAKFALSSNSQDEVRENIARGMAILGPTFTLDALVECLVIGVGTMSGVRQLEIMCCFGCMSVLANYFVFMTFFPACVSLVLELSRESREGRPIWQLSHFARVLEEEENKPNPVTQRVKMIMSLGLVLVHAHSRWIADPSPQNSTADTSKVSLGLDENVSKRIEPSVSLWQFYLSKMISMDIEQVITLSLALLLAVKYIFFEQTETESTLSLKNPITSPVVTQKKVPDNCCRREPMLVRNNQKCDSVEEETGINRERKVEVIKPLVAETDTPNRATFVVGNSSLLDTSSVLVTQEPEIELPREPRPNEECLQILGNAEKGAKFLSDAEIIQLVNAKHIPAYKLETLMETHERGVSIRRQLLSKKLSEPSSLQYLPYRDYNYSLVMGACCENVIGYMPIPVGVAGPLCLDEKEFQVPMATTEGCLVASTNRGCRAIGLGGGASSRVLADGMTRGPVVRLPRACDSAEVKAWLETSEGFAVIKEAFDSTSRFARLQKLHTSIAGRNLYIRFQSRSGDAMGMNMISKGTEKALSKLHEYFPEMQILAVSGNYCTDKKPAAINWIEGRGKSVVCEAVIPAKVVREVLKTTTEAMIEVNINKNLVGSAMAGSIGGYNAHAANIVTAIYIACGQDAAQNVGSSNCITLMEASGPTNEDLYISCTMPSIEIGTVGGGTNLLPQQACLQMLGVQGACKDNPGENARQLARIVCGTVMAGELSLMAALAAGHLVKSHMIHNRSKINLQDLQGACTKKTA
In words: Inhibitory concentration against 3-hydroxy-3-methylglutaryl-CoA reductase.

pIC50: −log10 of the molar value.

In the case of `O=C(O)C[C@H](O)C[C@H](O)/C=C/n1c(C(F)(F)F)nc(-c2ccc(F)cc2)c1-c1ccc(F)cc1`, the pIC50 (in general, −log10 of the IC50, conventionally taken in molar units) is 8.10. Consider `Cc1cc(C)cc(-c2c(-c3ccc(F)cc3)nc(C(C)C)n2/C=C/[C@@H](O)C[C@@H](O)CC(=O)O)c1`, for which the negative-log IC50 (pIC50) was 8.14.

The molecule `CC(C)c1nc(-c2cccc(S(C)(=O)=O)c2)c(-c2ccc(F)cc2)n1/C=C/[C@@H](O)C[C@@H](O)CC(=O)O` had a negative logarithm of the IC50 (pIC50) of 8.06. `CC(C)c1c(Br)c(-c2ccc(F)cc2)c(-c2ccc(F)cc2)n1/C=C/[C@@H](O)C[C@@H](O)CC(=O)O`: the negative logarithm of the IC50 (pIC50) is 8.02. The figure for `Cc1nc(-c2ccc(F)cc2)c(-c2ccc(F)cc2)n1/C=C/[C@@H](O)C[C@@H](O)CC(=O)O` is greater than 8.15; for `Cc1cc(F)ccc1-c1c(-c2ccc(F)cc2)nc(C(C)C)n1/C=C/[C@@H](O)C[C@@H](O)CC(=O)O` it is 8.08; for `CC(C)c1cc(-c2ccc(F)cc2)c(-c2ccccc2)n1/C=C/[C@@H](O)C[C@@H](O)CC(=O)O` it is 8.12. `CNc1cccc(-c2nc(C(C)C)n(/C=C/[C@@H](O)C[C@@H](O)CC(=O)O)c2-c2ccc(F)cc2)c1` showed a negative-log IC50 (pIC50) of 8.07. For the molecule `CC(C)(C)c1nc(-c2ccc(F)cc2)c(-c2ccc(F)cc2)n1/C=C/[C@@H](O)C[C@@H](O)CC(=O)O`, the negative-log IC50 (pIC50) was 8.09. `CC(C)c1cc(-c2ccccc2)c(-c2ccc(F)cc2)n1/C=C/[C@@H](O)C[C@@H](O)CC(=O)O` gave a negative-log IC50 (pIC50) of 8.06. In turn, `Cc1cc(-c2c(-c3ccc(F)cc3)nc(C(C)C)n2/C=C/[C@@H](O)C[C@@H](O)CC(=O)O)cc(C)c1F` had a pIC50 of 8.12. The figure for `CC(C)c1cc(-c2ccc(F)cc2)c(-c2cccc(Cl)c2)n1/C=C/[C@@H](O)C[C@@H](O)CC(=O)O` is 8.15; for `CN(C)c1nc(-c2ccc(F)cc2)c(-c2ccc(F)cc2)n1/C=C/[C@@H](O)C[C@@H](O)CC(=O)O` it is 8.09; for `CCc1cc(-c2c(-c3ccc(F)cc3)nc(C(C)C)n2/C=C/[C@@H](O)C[C@@H](O)CC(=O)O)cc(CC)c1F` it is 8.15. With `CC(C)c1cc(-c2cccc(Cl)c2)c(-c2ccc(F)cc2)n1/C=C/[C@@H](O)C[C@@H](O)CC(=O)O`, the negative logarithm of the IC50 (pIC50) was 8.06. `CC(C)c1cc(-c2ccc(F)cc2)c(-c2cccc(Br)c2)n1/C=C/[C@@H](O)C[C@@H](O)CC(=O)O` gave a pIC50 of 8.15. The figure for `CC(C)c1c(-c2ccc(F)cc2)nc(-c2ccc(F)cc2)n1/C=C/[C@@H](O)C[C@@H](O)CC(=O)O` is 8.05.

`Cc1cc(-c2nc(C(C)C)n(/C=C/[C@@H](O)C[C@@H](O)CC(=O)O)c2-c2ccc(F)cc2)cc(C)c1Cl` had a negative-log IC50 (pIC50) of 8.06. To `CC(C)c1cc(-c2cccc(Br)c2)c(-c2ccc(F)cc2)n1/C=C/[C@@H](O)C[C@@H](O)CC(=O)O` belongs 8.03; to `CC(C)c1nc(-c2ccc(F)cc2)c(-c2ccc(F)cc2)n1/C=C/[C@H](O)C[C@H](O)CC(=O)O`, 8.21. `CC(C)c1nc(-c2ccc(F)cc2)c(-c2cccc(Cl)c2)n1/C=C/[C@@H](O)C[C@@H](O)CC(=O)O`: the pIC50 is 8.09. In turn, `CC(C)c1cc(-c2ccncc2)c(-c2ccc(F)cc2)n1/C=C/[C@@H](O)C[C@@H](O)CC(=O)O` gave a negative logarithm of the IC50 (pIC50) of 8.08.

Take `CC(C)c1nc(-c2cccnc2)c(-c2ccc(F)cc2)n1/C=C/[C@@H](O)C[C@@H](O)CC(=O)O`: the negative logarithm of the IC50 (pIC50) is 8.05. On to `CC(C)c1nc(-c2ccc(F)cc2)c(-c2ccc(F)cc2)n1/C=C/[C@H](O)C[C@@H](O)CC(=O)O`, for which the negative-log IC50 (pIC50) was 8.24. In turn, `CC(C)c1nc(-c2ccc(F)cc2)c(-c2cc(Cl)cc(Cl)c2)n1/C=C/[C@@H](O)C[C@@H](O)CC(=O)O` had a pIC50 of 8.12. For the molecule `CC(C)c1cc(-c2ccccn2)c(-c2ccc(F)cc2)n1/C=C/[C@@H](O)C[C@@H](O)CC(=O)O`, the pIC50 was 8.06. `CC(C)c1nc(-c2ccc(F)cc2)c(-c2ccc(F)cc2)n1/C=C/[C@@H](O)C[C@@H](O)CC(=O)O`: the negative-log IC50 (pIC50) is 8.05. `CC(C)c1cc(-c2ccc(F)cc2)c(-c2ccc(F)cc2)n1/C=C/[C@@H](O)C[C@@H](O)CC(=O)O` (stereo in doubt; 19) showed a pIC50 of 8.06. For the molecule `CC(C)c1cc(-c2ccc(F)cc2)c(-c2ccc(F)cc2)n1/C=C/[C@@H](O)C[C@@H](O)CC(=O)O` (stereo in doubt; 29), the negative logarithm of the IC50 (pIC50) is 8.16. For `COCc1c(C(C)C)nc(C(C)C)c(/C=C/[C@@H](O)C[C@@H](O)CC(=O)O)c1-c1ccc(F)cc1` [CERIVASTATIN], the pIC50 is 8.00. On to `CC(C)n1c(/C=C/C(O)CC(O)CC(=O)O)c(-c2ccc(F)cc2)c2ccccc21` (stereo not drawn) [FLUVASTATIN], for which the negative-log IC50 (pIC50) is 7.55. In turn, `CC[C@H](C)C(=O)O[C@H]1CCC=C2C=C[C@H](C)[C@H](CC[C@@H]3C[C@@H](O)CC(=O)O3)[C@H]21` [MEVASTATIN] showed a pIC50 of 7.64.

With `CC(C)c1nc(N(C)S(C)(=O)=O)nc(-c2ccc(F)cc2)c1/C=C/[C@@H](O)C[C@@H](O)CC(=O)O` [ROSUVASTATIN], the negative-log IC50 (pIC50) was 8.30.
